Experimental findings from patent publication US4096257A, “Substituted imidazo [1,2-d]-as-triazines” (American Cyanamid Company, priority 1977, dated 1978) are described below.

The test system of the assay is Mouse Skin Phosphodiesterase (cyclic-AMP phosphodiesterase). The assay can be described thus: mouse skin phosphodiesterase (PDE) inhibition test. The format is biochemical. Further details: key to Mouse Skin Phosphodiesterase: Active: A compound is considered active if it inhibits more than theophylline, that is, to 50% of control at 1 mM concentration of compound, or to 80% of control of 0.05 mM concentration of compound. The note with it: for Mouse Skin Phosphodiesterase: hairless mouse epidermal PDE, 3H-cyclic AMP substrate, final concentration of test compounds 10 ug./ml.

On to `CCCc1n[nH]c(=O)c2nccn12` [5-n-propyl-imidazo[1,2-d]-as-triazin-8(7H)-one], for which the “Mouse Skin Phosphodiesterase” value is reported as “Active”.

Take `O=c1[nH]nc(-c2ccccc2)n2ccnc12` [5-phenyl-imidazo[1,2-d]-as-triazin-8(7H)-one]: the “Mouse Skin Phosphodiesterase” value is listed as “Active”.

`Cn1c(=O)c2[nH]cnc2n(C)c1=O` [theophylline]: the “inhibition of skin phosphodiesterase, % of control” value (0.05 mM concentration of compound) is reported as 80 % of control and the “inhibition of skin phosphodiesterase, % of control” value (1 mM concentration of compound) is recorded as 50 % of control.
